Experimental data taken from patent US8987195B2 (priority 2012, dated 2015).

Target: HCV NS3/4A protease genotype 1b (Hepatitis C virus genotype 1b, UniProt P26663)
Assay: HCV NS3/4A protease time-resolved fluorescence (TRF) assay, Ki against genotype 1b
Assay type: biochemical
Experimental: Measuring NS3/4A Inhibitory Activity (Ki) Against Genotype 1b, Against A156T Mutants and Against Genotype 3a
One assay for measuring inhibitory activity is HCV NS3 protease time-resolved fluorescence (TRF) assay as described below and in Mao et al., Anal. Biochem. 373:1-8, 2008 and International Patent Application Publication WO 2006/102087. A NS3 protease assay can be performed, for example, in a final volume of 20 μl assay buffer containing 50 mM HEPES, pH 7.5, 150 mM NaCl, 15% glycerol, 0.15% TRITON X-100, 10 mM DTT, and 0.1% PEG 8000. NS3 and NS4A protease is pre-incubated with various concentrations of inhibitors in DMSO for 30 min. The reaction is initiated by adding the TRF peptide substrate (final concentration 25 nM). NS3 mediated hydrolysis of the substrate was run for 2.5 hours at room temperature. Product fluorescence is detected using A Pherastar Plus plate reader (BMG) or Envision (Perkin Elmer Life and Analytical Sciences with excitation at 340 nm and emission at 615 nm using the appropriate delay time optimized for the europium fluorescence probe. Testing concentrations of different enzyme forms are selected to result in a signal to background ratio (S/B) of 10-30. IC50 values are derived using a standard four-parameter fit to the data. Ki values are derived from IC50 values using the following formula, IC50=Ki(1+[S]/KM), Eqn (1), where [S] is the concentration of substrate peptide in the reaction and KM is the Michaelis constant. See P. Gallinari et al., 38 BIOCHEM. 5620-32 (1999); P. Gallinari et al., 72 J. VIROL. 6758-69 (1998); M. Taliani et al., 240 ANAL. BIOCHEM. 60-67 (1996); Mao et al., Analytical Biochemistry 373: 1-8, 2008.
The assay described above was run against genotype 1b at a concentration of 0.2 nM, against A156T mutant strains at a concentration of 0.4 nM, and against genotype 3a at a concentration of 0.025 nM.

[1] = IC50 [gt-1b], NS3/4A protease TRF assay, genotype 1b enzyme 0.2 nM
[2] = IC50 [gt-1b] (nM), NS3/4A genotype 1b, enzyme 0.2 nM

SMILES | IC50 [1] | IC50 [2] | also measured
Cc1nc2ccccc2c2c1O[C@]1(CC2)C[C@H]2C(=O)N[C@]3(C(=O)NS(=O)(=O)C4(C)CC4)C[C@H]3/C=C\CCCCC[C@H](Nc3nc(C4CC4)no3)C(=O)N2C1 [Example 394, (2R,6S,12Z,13aS,14aR,16aS)-6-[(3-cyclopropyl-1,2,4-oxadiazol-5-yl)amino]-5′-methyl-N-[(1-methylcyclopropyl)sulfonyl]-5,16-dioxo-1,1′,2′,6,7,8,9,10,11,13a,14,15,16,16a-tetradecahydrospiro[cyclopropa[e]pyrrolo[1,2-a][1,4]diazacyclopentadecine-2,3′-pyrano[2,3-c]quinoline]-14a(5H)-carboxamide] | 0.057 nM |  | 
Cc1ccc2nc(C(F)(F)F)c3c(c2c1)CC[C@]1(C[C@H]2C(=O)N[C@]4(C(=O)NS(=O)(=O)C5(C)CC5)C[C@H]4/C=C\CCCCC[C@H](NC(=O)O[C@H](C)C(C)C)C(=O)N2C1)O3 [Example 395, (2R)-3-methylbutan-2-yl [(2R,6S,12Z,13aS,14aR,16aS)-9′-methyl-14a-{[(1-methylcyclopropyl)sulfonyl]carbamoyl}-5,16-dioxo-5′-(trifluoromethyl)-1,1′,2′,5,6,7,8,9,10,11,13a,14,14a,15,16,16a-hexadecahydrospiro[cyclopropa[e]pyrrolo[1,2-a][1,4]diazacyclopentadecine-2,3′-pyrano[2,3-c]quinolin]-6-yl]carbamate] | 0.014 nM |  | 
Cc1ccc2nc(C(F)(F)F)c3c(c2c1)CC[C@]1(C[C@H]2C(=O)N[C@]4(C(=O)NS(=O)(=O)C5(C)CC5)C[C@H]4/C=C\CCCCC[C@H](NC(=O)OC(C)(C)C(F)(F)F)C(=O)N2C1)O3 [Example 393, 1,1,1-trifluoro-2-methylpropan-2-yl [(2R,6S,12Z,13aS,14aR,16aS)-9′-methyl-14a-{[(1-methylcyclopropyl)sulfonyl]carbamoyl}-5,16-dioxo-5′-(trifluoromethyl)-1,1′,2′,5,6,7,8,9,10,11,13a,14,14a,15,16,16a-hexadecahydrospiro[cyclopropa[e]pyrrolo[1,2-a][1,4]diazacyclopentadecine-2,3′-pyrano[2,3-c]quinolin]-6-yl]carbamate] | 0.026 nM |  | 
COc1ccc2nc(C(F)F)c3c(c2c1)CC[C@]1(C[C@H]2C(=O)NC4(C(=O)NS(=O)(=O)C5(C)CC5)C[C@H]4/C=C\CCCCC[C@H](NC(=O)O[C@@H]4C[C@@H]5C[C@@H]5C4)C(=O)N2C1)O3 (stereo partly drawn) [Example 503, (1R,3r,5S)-bicyclo[3.1.0]hex-3-yl [(2R,6S,12Z,13aS,14aR,16aS)-5′-(difluoromethyl)-9′-methoxy-14a-{[(1-methylcyclopropyl)sulfonyl]carbamoyl}-5,16-dioxo-1,1′,2′,5,6,7,8,9,10,11,13a,14,14a,15,16,16a-hexadecahydrospiro[cyclopropa[e]pyrrolo[1,2-a][1,4]diazacyclopentadecine-2,3′-pyrano[2,3-c]quinolin]-6-yl]carbamate] |  |  | IC50 (IC50 [gt-1b], NS3/4A protease TRF assay, genotype 1b enzyme 0.2 nM, K+ salt): 0.007 nM
[2H]C([2H])(F)Oc1ccc2nc(C)c3c(c2c1)[C@H](F)C[C@]1(C[C@H]2C(=O)N[C@]4(C(=O)NS(=O)(=O)C5(C)CC5)C[C@H]4/C=C\CCCCC[C@H](NC(=O)OC(C)(C)C)C(=O)N2C1)O3 [Example 397, tert-butyl [(1′R,2S,6S,12Z,13aS,14aR,16aS)-1′-fluoro-9′-{[fluoro(^2H2)methyl]oxy}-5′-methyl-14a-{[(1-methylcyclopropyl)sulfonyl]carbamoyl}-5,16-dioxo-1,1′,2′,5,6,7,8,9,10,11,13a,14,14a,15,16,16a-hexadecahydrospiro[cyclopropa[e]pyrrolo[1,2-a][1,4]diazacyclopentadecine-2,3′-pyrano[2,3-c]quinolin]-6-yl]carbamate] | 0.006 nM |  | 
COc1ccc2nc(C3CC3)c3c(c2c1)C(F)(F)C[C@]1(C[C@H]2C(=O)N[C@]4(C(=O)NS(=O)(=O)C5(C)CC5)C[C@H]4/C=C\CCCCC[C@H](NC(=O)OC4CCCC4)C(=O)N2C1)O3 [Example 247, cyclopentyl [(2S,6S,12Z,13aS,14aR,16aS)-5′-cyclopropyl-1′,1′-difluoro-9′-methoxy-14a-{[(1-methylcyclopropyl)sulfonyl]carbamoyl}-5,16-dioxo-1,1′,2′,5,6,7,8,9,10,11,13a,14,14a,15,16,16a-hexadecahydrospiro[cyclopropa[e]pyrrolo[1,2-a][1,4]diazacyclopentadecine-2,3′-pyrano[2,3-c]quinolin]-6-yl]carbamate] |  | 0.013 nM | 
CC(C)(C)OC(=O)N[C@H]1CCCCC/C=C\[C@@H]2C[C@@]2(C(=O)NS(=O)(=O)C2(C)CC2)NC(=O)[C@@H]2C[C@]3(CCc4c(c(C(F)(F)F)nc5ccc(OCCN6CCCCC6)cc45)O3)CN2C1=O [Example 67, tert-Butyl ((2R,6S,13aS,14aR,16aS,Z)-14a-(((1-methylcyclopropyl)sulfonyl)carbamoyl)-5,16-dioxo-9′(2-(piperidin-1-yl)ethoxy)-5′-(trifluoromethyl)-1′,2′,3,5,6,7,8,9,10,11,13a,14,14a,15,16,16a-hexadecahydro-1H-spiro[cyclopropa[e]pyrrolo[1,2-a][1,4]diazacyclopentadecine-2,3′-pyrano[2,3-c]quinolin]-6-yl)carbamate] |  | 0.021 nM | 
Cc1nc2ccc(OC(F)(F)F)cc2c2c1O[C@@]1(C[C@H]3C(=O)N[C@]4(C(=O)NS(=O)(=O)C5(C)CC5)C[C@H]4/C=C\CCCCC[C@H](NC(=O)OC(C)(C)C)C(=O)N3C1)CC2(F)F [Example 220, tert-butyl [(2S,6S,12Z,13aS,14aR,16aS)-1′,1′-difluoro-5′-methyl-14a-{[(1-methylcyclopropyl)sulfonyl]carbamoyl}-5,16-dioxo-9′-(trifluoromethoxy)-1,1′,2′,5,6,7,8,9,10,11,13a,14,14a,15,16,16a-hexadecahydrospiro[cyclopropa[e]pyrrolo[1,2-a][1,4]diazacyclopentadecine-2,3′-pyrano[2,3-c]quinolin]-6-yl]carbamate] |  | 0.033 nM | 
COc1ccc2nc(C(F)(F)F)c3c(c2c1)OC[C@]1(C[C@H]2C(=O)N[C@]4(C(=O)NS(=O)(=O)C5(C)CC5)C[C@H]4/C=C\CCCCC[C@H](NC(=O)OC(C)(C)C)C(=O)N2C1)O3 [Example 8, tert-Butyl ((2′R,6′S,13a′S,14a′R,16a′S,Z)-9-methoxy-14a′-(((1-methylcyclopropyl)sulfonyl)carbamoyl)-5′,16′-dioxo-5-(trifluoromethyl)-3′,5′,6′,7′,8′,9′,10′,11′, 13a′,14′,14a′,15′,16′,16a′-tetradecahydro-1H,2H-spiro[[1,4]dioxino[2,3-c]quinoline-3,2′-cyclopropa[e]pyrrolo[1,2-a][1,4]diazacyclopentadecin]-6′-yl)carbamate] |  | 0.011 nM | 
COc1cc(Cl)c2nc(C(F)(F)F)c3c(c2c1)CC[C@]1(C[C@H]2C(=O)N[C@]4(C(=O)NS(=O)(=O)C5(C)CC5)C[C@H]4/C=C\CCCCC[C@H](NC(=O)OC(C)(C)C(F)(F)F)C(=O)N2C1)O3 [Example 400, 1,1,1-trifluoro-2-methylpropan-2-yl [(2R,6S,12Z,13aS,14aR,16aS)-7′-chloro-9′-methoxy-14a-{[(1-methylcyclopropyl)sulfonyl]carbamoyl}-5,16-dioxo-5′-(trifluoromethyl)-1,1′,2′,5,6,7,8,9,10,11,13a,14,14a,15,16,16a-hexadecahydrospiro[cyclopropa[e]pyrrolo[1,2-a][1,4]diazacyclopentadecine-2,3′-pyrano[2,3-c]quinolin]-6-yl]carbamate] | 0.052 nM |  | 
Cc1nc2ccc(C(F)(F)F)cc2c2c1O[C@]1(CC2)C[C@H]2C(=O)N[C@]3(C(=O)NS(=O)(=O)C4(C)CC4)C[C@H]3/C=C\CCCCC[C@H](NC(=O)OCC(C)C)C(=O)N2C1 [Example 253, 2-methylpropyl [(2R,6S,12Z,13aS,14aR,16aS)-5′-methyl-14a-{[(1-methylcyclopropyl)sulfonyl]carbamoyl}-5,16-dioxo-9′-(trifluoromethyl)-1,1′,2′,5,6,7,8,9,10,11,13a,14,14a,15,16,16a-hexadecahydrospiro[cyclopropa[e]pyrrolo[1,2-a][1,4]diazacyclopentadecine-2,3′-pyrano[2,3-c]quinolin]-6-yl]carbamate] |  | 0.014 nM | 
Cc1nc2ccc(OC(F)(F)F)cc2c2c1O[C@]1(CC2)C[C@H]2C(=O)N[C@]3(C(=O)NS(=O)(=O)C4(C)CC4)C[C@H]3/C=C\CCCCC[C@H](NC(=O)OC3(C)CCCC3)C(=O)N2C1 [Example 209, 1-methylcyclopentyl [(2R,6S,12Z,13aS,14aR,16aS)-5′-methyl-14a-{[(1-methylcyclopropyl)sulfonyl]carbamoyl}-5,16-dioxo-9′-(trifluoromethoxy)-1,1′,2′,5,6,7,8,9,10,11,13a,14,14a,15,16,16a-hexadecahydrospiro[cyclopropa[e]pyrrolo[1,2-a][1,4]diazacyclopentadecine-2,3′-pyrano[2,3-c]quinolin]-6-yl]carbamate] |  | 0.03 nM | 
